Experimental findings from a melting point compilation (Tetko et al.; mined from patent text by program, amines drawn as free bases though some values may be those of a salt) are described below.

What is called melting point is the temperature of the solid-liquid transition. `NCCCC1(C(N)=O)c2ccccc2-c2ccccc21`: the melting point lay in the range of 198 to 200 °C.
The value for `CCn1c(=O)c2cc(O)c(O)cc2c2cc(O)c(O)cc21` was 309 to 310 °C.
The value for `CS(=O)(=O)N1CCCn2c(nc3c(N)nc4ccccc4c32)C1` was 280 °C; that for `CC(C)c1ccc(N(Cc2ccc(N(C)C)cc2)C(=O)C2CCOc3c(C#N)cccc32)cc1` (configuration not stated) was 179 °C.
The value for `O=C(O)CCCN1C(=O)c2ccc(C(=O)O)cc2C1=O` was 218 to 220 °C; that for `CC(=O)NCCNCC(O)COc1ccc(CCOCC2CCC2)cc1` (configuration not stated) was 108 °C.
`O=C(O)C1=CS[C@@H]2/C(=C/c3ccc4c(c3)N(Cc3ccccc3)C(=O)c3ccccc3O4)C(=O)N12` had a melting point of 179 °C.
Compound `Cc1ccc(F)c([Si](C)(C)C)c1C#N` gave a melting point of 71 to 73 °C.
Compound `Cc1ccc(C#N)cc1Cl` came in with a melting point of 46.5 to 47.5 °C.
For the compound `O=[N+]([O-])c1ccc(C2OCCO2)nc1`, the melting point is 104 to 105 °C.
Regarding `CN1CCN(NC(=O)Nc2cccc3c2C(=O)c2c-3n[nH]c2-c2ccc(N3CCN(C)CC3)cc2)CC1`, the melting point came out at 293 °C.
`Cc1ccc(N)c(C(=O)c2ccccc2)c1`: the melting point fell in the range of 64 to 66 °C.
For `CCOC(=O)c1cc(C(=O)OCC)cc([N+](=O)[O-])c1`, the melting point came out at 83.5 °C.
Compound `N#Cc1cc(Sc2ccc3ccccc3c2)ccc1[N+](=O)[O-]` registered a melting point of 139 to 140 °C.
Consider `COc1cccn2nc(S(=O)(=O)Nc3c(F)cccc3F)nc12`, for which the melting point fell in the range of 254 to 255 °C.
`CCCCCCCCCCCCOCCOc1ccc(C(=O)OC)cc1` returned a melting point of 40 to 42 °C.
With `CC(C)(O)[C@H]1C[C@@H](C(=O)O)C1(C)C`, the melting point was in the range of 98 to 99 °C.
For `CN1CCN(c2ccc(F)cc2C=C2CCCN(c3ccc(F)c(F)c3)C2=O)CC1`, the melting point lay in the range of 168 to 170 °C.
With `Brc1nc(-c2cccnc2)[nH]c1Br`, the melting point was in the range of 226 to 227 °C.
Compound `O=C1CCN2CCc3ccccc3C2(c2ccc(F)cc2)C1` (configuration not stated) showed a melting point of 128 to 130 °C.
The value for `CNC(=S)NCC1CC(c2ccc(Cl)cc2)=NO1` (configuration not stated) was 131 to 133 °C; that for `CCCCC(=O)N(Cc1ccc(-c2ccccc2-c2nnnn2C(c2ccccc2)(c2ccccc2)c2ccccc2)cc1)C(C(=O)O)C(C)C` (configuration not stated) was 170 °C.
Then `Cc1cccc(C)c1CNc1cc(C(=O)N(C)C)nc2c(C)c(C)n(Cc3ccccc3)c12`, with 203 °C.
Then `CC(C)(C)OC(=O)NCCc1c[nH]c2ccc(CO)cc12`, with 129 to 130 °C.
With `CCCNC(=O)C1(CCCCc2ccc([N+](=O)[O-])cc2)c2ccccc2-c2ccccc21`, the melting point lay within 109 to 110 °C.
As for `N#CCc1cccc(-c2onc3ccccc23)c1`, the melting point lay in the range of 122 to 124 °C.
Then `COCc1c(-c2ccncc2)[nH]c(-c2ccncc2)c1C(=O)OC`, with 97 to 99 °C; and `COC1=C(OC)C(=O)C(CCCCCCCCCC(=O)N[C@H](CCC(=O)OCc2ccccc2)C(N)=O)=C(C)C1=O`, with 83 to 85 °C; and `CN(C)c1ccc(NC(=O)Cn2c(-c3ccc(Cl)cc3)nc3cccnc32)cc1`, with 245 to 246 °C.
Take `Cc1cc(CC(=O)OC(C)(C)C)ccc1NC(=O)Nc1ccccc1F`: the melting point lay within 89 to 91 °C.
Then `COC(=O)C(C)(C)CCOc1ccc(C2=NNC(=O)CC2)cc1Cl`, with 109 to 110 °C; and `CCCc1n[nH]c(=O)n1C`, with 77 °C; and `CCOC(=O)COc1cc(F)ccc1[N+](=O)[O-]`, with 37 to 39 °C.
The value for `COc1ccc(Oc2c(C)cc([N+](=O)[O-])cc2C)cc1` was 117 to 120 °C; that for `CCSC1=NCC(=O)N1c1ccc(F)cc1` was 114 to 115 °C.
Then `COc1ccc(S(=O)(=O)C2(C(=O)O)CCN(C3CCCCCCC3)CC2)cc1`, with 180 °C; and `O=[N+]([O-])c1nccn1CC(O)CC1C2CCCN21` (configuration not stated), with 81 to 81.5 °C.
For the compound `CC(C)(C)OC(=O)CON=C1CC(=NOCC(=O)OC(C)(C)C)c2ccccc2-c2ccccc21`, the melting point lay within 105 to 107 °C.
The value for `Cc1c(S(=O)c2cc(Cl)c(Cl)cc2Cl)cc(C(C)(C)C)c(O)c1C(=O)Nc1ccc([N+](=O)[O-])cc1Cl` (configuration not stated) was 245 to 246 °C; that for `Fc1cc(F)c(-c2c(Cl)nc3ncnn3c2Cl)c(F)c1` was 125 to 126 °C.
With `CC1CCN(c2cc3nc(C(C)(C)C)sc3cc2NC(=S)N2CCN(C)CC2)CC1`, the melting point fell in the range of 192 to 195 °C.
Then `N#Cc1c(C#N)n(-c2ccc(Cl)cc2)c(=O)n1Cc1ccccc1`, with 192 to 194 °C.
`Cc1c(F)c(F)c(Cl)c2c1c(=O)c(C(=O)O)cn2-c1cc(N)c(F)cc1F` yielded a melting point of 271 to 274 °C.
The value for `CC(C)O[Si](C)(CCl)c1ccc(-c2ccccc2)cc1` (configuration not stated) was 35 to 38 °C; that for `Cc1ccc(C(=O)C2C(=O)CCC(C)(C)C2=O)cc1` (configuration not stated) was 78 to 79 °C.
As to `COC1(c2cc(F)cc(S(=O)(=O)c3ccc(/C(C)=N/O)cc3)c2)CCOCC1`, the melting point was in the range of 180 to 181 °C.
Compound `Cc1onc(-c2ccc(C(F)(F)F)cc2)c1CCl` came in with a melting point of 91 to 92 °C.
Then `CNc1c(SC(F)(F)F)c(C#N)nn1-c1c(Cl)cc(C(F)(F)F)cc1Cl`, with 208 to 210 °C.
Regarding `Cc1cc(CCCCCOc2c(Cl)cc(-c3nc(C)c(C)s3)cc2Cl)on1`, the melting point is 57 to 58 °C.
On to `Cn1cc(C2=C(c3cn(CCCSc4ncc[nH]4)c4ccccc34)C(=O)NC2=O)c2ccccc21`, for which the melting point is 130 to 132 °C.
The compound `Cc1ccc(C(=O)NCC(N)=O)cc1-c1cccc2cc(Cc3cccc(C(F)(F)F)c3)sc12` gave a melting point of 165 to 166 °C.
The value for `CC(=O)Nc1ccc2c(c1)C(=O)N(c1ccc3c(ccn3C)c1)C2` was 275 to 280 °C.
Then `O=[N+]([O-])c1ccc2nc3c(nc2c1)OCC1CCCN31` (configuration not stated), with 234 to 237 °C; and `CNC(=O)NCCN(c1ccc(Cl)cc1Cc1c(F)cccc1F)S(=O)(=O)c1ccc(OC)c(OC)c1`, with 106 °C; and `Clc1ccc(C2C3=C(CCS3)NC3=C2SCC3)cc1Cl`, with above 260 °C.
The value for `Cn1ccc2cc(N3Cc4c(cccc4[N+](=O)[O-])C3=O)ccc21` was 267 to 271 °C; that for `CC(C)Sc1c(C(=O)O)oc(Br)c1Br` was 130 to 131 °C; that for `Nc1ccc2nc(-c3ccccc3)oc2n1` was 210 °C.
For the compound `Cc1c(S(=O)c2cc(Cl)c(Cl)cc2Cl)cc(C(C)(C)C)c(O)c1C(=O)Nc1ccc([N+](=O)[O-])cc1C(F)(F)F` (configuration not stated), the melting point lay within 234 to 235 °C.
In turn, `COc1ccc(C2CC(c3ccc(OC)c(OC)c3)=NN2c2ccc(C(=O)O)cc2)cc1` (configuration not stated) came in with a melting point of 141 °C.
The compound `CC(=O)NC1C(O[Si](C)(C)C(C)(C)C)C=C(C(=O)O)OC1C(OCC(=O)O)C1COC(C)(C)O1` (configuration not stated) gave a melting point of 130 °C.
Then `Nc1c(-c2ccc(C(F)(F)F)cc2F)nnn1-c1ccc(S(N)(=O)=O)cc1`, with 184 to 185 °C.
The value for `CCc1ccc2oc(C(=O)Nc3ccc(-c4ccc(S(=O)(=O)NC(C(=O)O)C(C)C)cc4)cc3)c(C)c2c1O` (configuration not stated) was 122 to 125 °C.
The value for `COc1cccc(CCN2C(=O)c3ccccc3C2(O)c2ccncc2)c1` (configuration not stated) was 190 °C; that for `O=C(NCCc1ccccc1F)[C@@H]1Cc2ccccc2N1` was 135 °C.
In the case of `CCCC/C(=C\C(=O)O)c1cc(OC)c(O)c2c(CC)cccc12`, the melting point fell in the range of 139 to 140 °C.
The value for `COCCCNc1ccc(S(N)(=O)=O)cn1` was 129 to 132 °C; that for `O=C1NC(=O)c2cc(CCCCOc3ccccc3)ccc21` was 102 to 103 °C; that for `O=C1NC(=O)C(Cc2ccc(OCc3cscn3)cc2)S1` (configuration not stated) was 151 to 153 °C.
`CCOC(=O)C(Cl)=Cc1cc(-n2ncc(C(F)(F)F)c(C)c2=O)ccc1Cl` came in with a melting point of 164 to 167 °C.
Compound `CCCCOc1cc(/C=C(\OCC)C(=O)O)ccc1OCCc1ccc(OCC)c(Cl)c1` returned a melting point of 109 °C.
The value for `CN1C(=S)Nc2ccncc2S1(=O)=O` was 195 to 198 °C.
Then `Cc1ccc(S(=O)(=O)N[C@@H](C)C(=O)O)cc1`, with 134 to 135 °C; and `CC(CO)COc1ccc(C#Cc2ccc(C(=O)O)cc2)cc1C12CC3CC(CC(C3)C1)C2` (configuration not stated), with 260 to 262 °C.
For `CCC(C)(C(=O)c1ccc(N2CCOCC2)cc1)N1CCOCC1` (configuration not stated), the melting point fell in the range of 111 to 114 °C.
The compound `Cc1ccc(S(=O)(=O)OCC2Cn3c(nc4ccccc43)-c3ccccc3O2)cc1` (configuration not stated) yielded a melting point of 166 °C.
In the case of `CCOC(=O)Cc1c(C(=O)O)c(C)cn1C`, the melting point lay in the range of 182 to 185 °C.
For `C=C1C(OC(C)=O)C(CO)OC1n1ccc(NC(C)=O)nc1=O` (configuration not stated), the melting point fell in the range of 174 to 175 °C.
The value for `CCN(CC)c1ccc2cc(C(=O)OCCCCCCO)c(=O)oc2c1` was 85 to 86 °C.
`COC(=O)COc1ccc(C(=O)CCN2CCN(c3ccncc3)CC2)cc1` displayed a melting point of 93 to 95 °C.
The value for `COc1ccccc1Cn1c(=O)[nH]c2cc(Cl)cc(Cl)c2c1=O` was 143 to 146 °C; that for `COC(=O)CNS(=O)(=O)c1ccc(N2CCC(NC[C@H](O)c3ccc(O)c(NS(C)(=O)=O)c3)CC2)cc1` was 123 to 125 °C.
As for `CC(C)(C)c1cccc(S(=O)(=O)n2c(Cc3ccc(C(=O)O)cc3)cc3c(Cl)c(Cl)ccc32)c1`, the melting point amounted to 216 °C.
`CNC(=O)Nc1nccc(Oc2ccc3c(C(=O)Nc4ccc(F)c(C(F)(F)F)c4)cccc3c2)n1` came in with a melting point of 233 to 234 °C.
The value for `CCCCCCCCCCCCc1ccc(CCC(COC(C)=O)(COC(C)=O)NC(C)=O)cc1` was 111 to 113 °C; that for `Nc1cc(CO)cc(Nc2c3ccccc3nc3occc23)c1` was 236 to 237 °C.
Then `COCOc1cc(C(=O)O)ccc1-c1ccc(-c2ccccc2)c(-c2ccc3c(c2)C(C)(C)CCC3(C)C)c1`, with 122 °C.
